Values joined by “and” are separate entries in the source; they are usually repeats but may differ in a detail not shown here. Equal entries are not always repeated. Where two headings read alike, the source gives them in different places. *1 amine or outer side, *2 acyl side, *3 side chain or, on linkers, in order; H or OH if unused. Where no end group is shown, it is not given here. Suc = O=C(CCC(=O)[*:2])[*:1]
Legend:
[1] = tested on: ET-1-induced pain in the rat plantar hindpaw; assay type: in vivo
Text: These examples are provided to illustrate the invention and should not be construed as limiting. ETA and ETB Receptors Mediate ET-1-induced Pain in the Rat Plantar Hindpaw An ET-1 animal model of acute pain was used to investigate the signaling pathways involved in endothelin receptor-mediated nociception. In this model system, acute pain was induced under sevoflurane anesthesia by subcutaneous ET-1 injection into the rat plantar hindpaw after 40 seconds of limb cooling. Injections were given either as a single 20 μl bolus for single compound or co-administration studies, or as two 10 μl injections separated by 1-2 minutes for pre-treatment studies, and were delivered into the mid plantar paw approximately 1 cm distal to the heel. Repetitive and spontaneous flinching of the ipsilateral hindpaw were counted in 5 minute blocks, beginning 5 minutes after ET-1 injection, for 75 minutes. […] Data was reported as the mean±s.e.m.

sciatic nerve C-fibers = assay: Electrophysiological recording of spike activity in nociceptive C-fibers after plantar hindpaw injection; assay type: in vivo, rat; details: ET-1 2 nmoles, IRL-1620 2 nmoles; s.c. plantar hindpaw injection
Text: FIG. 5 is a representative series of electrophysiological recordings of C-fiber activity following subcutaneous plantar hindpaw injections of (A) ET-1 alone, (B) ET-1 and IRL-1620, and (C) ET-1, IRL-1620, and naloxone. The arrow in (A) indicates the time of ET-1 injection. The first and second arrows in (B) indicate the time of IRL-1620 and IRL-1620/ET-1 injections, respectively. The first and second arrows in (C) indicate the time of IRL-1620/naloxone and ET-1/IRL-1620/naloxone injections, respectively.
In order to confirm that ETB receptor activation inhibits the ET-1-induced pain response and that the inhibition is mediated through an opioid-sensitive mechanism, the spike response of IRL-1620 alone, and in combination with naloxone, were studied in nociceptive C-fibers. Spike activity was recorded in sciatic nerve C-fibers from twelve animals following subcutaneous plantar hindpaw injections of ET-1. The mean and maximum response frequencies following injection of ET-1 alone (2 nmoles) are 0.32±0.07 imp/s and 4.17+0.17 imp/s, respectively.

GIRK2 knockout mice = assay: ET-1 pain behavior (biting and licking) in GIRK2 knockout mice; assay type: in vivo; details: ET-1 100 pmol s.c. mouse plantar hindpaw, 30 minutes
Procedure: (§1) The duration of biting and licking events was used as a measure of pain responsiveness following subcutaneous administration of ET-1(100 pmol) into the mouse plantar hindpaw. The duration of these events was assessed in five minute periods for 30 minutes after ET-1 injection.

wild-type control mice = assay: ET-1 pain behavior (biting and licking) in wild-type control mice; assay type: in vivo; details: ET-1 100 pmol s.c. mouse plantar hindpaw, 30 minutes
Procedure: as §1

[2] = tested on: cultured adult human primary keratinocytes; assay: β-endorphin release from cultured keratinocytes (radioimmunoassay); assay type: cell-based
Procedure: Cultured adult human primary keratinocytes, obtained during facelift procedures, were used to confirm that keratinocytes are the source of the extracellular β-endorphin that mediates ETB receptor-induced analgesia. Cultured keratinocytes were transferred to PBS and incubated in the presence of either 10 or 200 nM IRL-1620 for thirty or sixty minutes. Subsequently, the β-endorphin concentration in the PBS was measured by radioimmunoassay. In the absence of IRL-1620, the basal level of β-endorphin was 1.76±0.08 μg/ml. […] The intracellular concentration of β-endorphin in similarly treated cultured keratinocytes was 108±48 pg β-endorphin per 10^5 cells.

[3] = entire 75 minute observation period, dosages ET-1 2 nmol, BQ-788 60 nmol, IRL-1620 2 nmol, naloxone 55 nmol, tertiapin 20 pmol, mean ± s.e.m.
[4] = s.c. rat plantar hindpaw, dosages ET-1 2 nmol, BQ-788 60 nmol, IRL-1620 2 nmol, naloxone 55 nmol, tertiapin 20 pmol, mean ± s.e.m.
[5] = without ET-1, BQ-788 60 nmol bolus or 2 x 30 nmol, naloxone 55 nmol, tertiapin 20 pmol
[6] = 0.5 μg CL prior to ET-1 (2 nmol), 75 minute observation period, ET-1 line = control
[7] = 0.5 μg CL s.c. two minutes prior to ET-1 (2 nmol), ET-1 line = control
[8] = 0.5 μg CL, or equal volume of water (ET-1 + IRL-1620 line), prior to co-administration of ET-1 (2 nmol) and IRL-1620 (2 nmol)
[9] = CTOP 18.8 nmoles co-injected with ET-1 and IRL-1620
[10] = ET-1 4 nmol, s.c. rat plantar hindpaw
[11] = ET-1 6 nmol, s.c. rat plantar hindpaw
[12] = IRL-1620 4 nmol, alone or prior and co-administered with ET-1 2 nmol

In the case of `CCCC[C@@H](NC(=O)[C@@H](Cc1cn(C(=O)OC)c2ccccc12)NC(=O)[C@H](CC(C)(C)C)NC(=O)N1[C@H](C)CCC[C@@H]1C)C(=O)O` (relative stereo) [BQ-788, N-cis-2,6-dimethylpiperidinocarbonyl-L-gamma-methylleucyl-D-1-methoxycarbonyltryptophanyl-D-Nle], the “Total Number of Flinches” value [1, 3] is reported as 17.3 ± 2.3 flinches, the “MFF (maximal flinch frequency)” value [1, 4] is reported as 5.8 ± 0.9 flinches per 5 minutes and the “Time to MFF” value [1, 4] is reported as 32.5 ± 10.2 min. For the same compound, the “flinching behavior when administered alone compared to PBS control” value (“flinching behavior … compared to PBS control” for short) [1, 5] was “did not result in altered flinching behaviors”.
In the case of `COc1ccc2c(c[n+](C)c3c4cc5c(cc4ccc23)OCO5)c1OC` [CL, Chelerythrine chloride], the “Total Number of Flinches” value [1, 6] is reported as 253±7, the “MFF (maximal flinch frequency)” value [1, 7] is reported as 46±3 flinches per five minutes and the “MFF (maximal flinch frequency)” value [1, 8] is reported as 39±3 flinches per five minutes. The total flinches [1, 8] was 207±10 and the “toxicity” value ([1]; 0.8 μg CL s.c. rat plantar hindpaw) was “showed signs of toxicity”.
With `C=CCN1CC[C@]23c4c5ccc(O)c4O[C@H]2C(=O)CC[C@@]3(O)[C@H]1C5` [Naloxone, naloxone] the “Total Number of Flinches” value [1, 3] was 16.1 ± 4.1 flinches, the “MFF (maximal flinch frequency)” value [1, 4] was 3.3 ± 0.8 flinches per 5 minutes and the “Time to MFF” value [1, 4] was 28.6 ± 5.6 min. The “flinching behavior … compared to PBS control” value [1, 5] was “did not induce flinching behavior that was different from PBS control”.
For `Oc1ccc2c3c1O[C@H]1c4[nH]c5ccccc5c4C[C@@]4(O)[C@@H](C2)N(CC2CC2)CC[C@]314` [naltrindole], the “effect on flinching behavior” value ([1]; naltrindole with ET-1 alone or the ET-1/IRL-1620 combination) was “did not affect flinching behavior”.
For `Oc1ccc2c3c1O[C@H]1c4[nH]c5c(c4C[C@@]4(O)[C@@H](C2)N(CC2CC2)CC[C@]314)C[C@@]1(O)[C@H]2Cc3ccc(O)c4c3[C@@]1(CCN2CC1CC1)[C@H]5O4` [nor-BNI], the “effect on flinching caused by ET-1 administration alone” value ([1]; nor-BNI 3.4 mM) was “partially enhanced the flinching”.
For “Ala-Leu-Cys-Asn-Cys-Asn-Arg-Ile-Ile-Ile-Pro-His-Met-Cys-Trp-Lys-Lys-Cys-Gly-Lys-Lys (ALCNCNRIIIPHMCWKKCGKK) [Tertiapin, GIRK channel antagonist]”, the “Total Number of Flinches” value [1, 3] was 17 ± 6 flinches and the “flinching behavior … compared to PBS control” value [1, 5] was “did not induce flinching behavior that was different from naloxone or PBS control”.
In the case of CTOP, the “MFF (maximal flinch frequency)” value [1, 9] is reported as 31±4 flinches/5 minutes and the “effect on IRL-1620 analgesia” value [1, 9] is reported as “blocked the analgesic effects of IRL-1620”.
In the case of “Cys-Ser-Cys-Ser-Ser-Leu-Met-Asp-Lys-Glu-Cys-Val-Tyr-Phe-Cys-His-Leu-Asp-Ile-Ile-Trp [ET-1]”, the “Total Number of Flinches” value [1, 6] is reported as 153±11, the “MFF (maximal flinch frequency)” value [1, 7] is reported as 27±2 flinches per five minutes and the “flinching behavior returning to baseline” value ([1]; ET-1 4 nmol) is reported as ≤ 75 min. The “start of flinching after injection” value ([1]; ET-1 4 nmol) was 10 to 20 min, the “animals with evoked ipsilateral hindpaw flinching” value ([1]; ET-1 4 nmol, n=12) was 100% and the “MFF (maximal flinch frequency)” value [1, 10] was 40.2±3.9 flinches per 5 minutes. For the same compound, the “Time to MFF” value [1, 10] was 40.8 ± 2.8 min, the “Total Number of Flinches” value ([1]; ET-1 4 nmol, entire 75 minute observation period) was 178.5±29.1 flinches and the “MFF (maximal flinch frequency)” value [1, 11] was 41.9±8.7 flinches per 5 minutes. For the same compound, the “Time to MFF” value [1, 11] was 22.5 ± 4.1 min, the “Total Number of Flinches” value ([1]; ET-1 6 nmol, entire 75 minute observation period) was 253.3 ± 66.2 flinches and the “MFF (maximal flinch frequency)” value [1, 4] was 23.8±1.9 flinches per 5 minutes and 24±2 flinches per 5 minutes. The “maximum response frequency of C-fiber spike activity” value (sciatic nerve C-fibers) was 4.17 ± 0.17 imp/s, the “mean response frequency of C-fiber spike activity” value (sciatic nerve C-fibers) was 0.32±0.07 imp/s and the “total duration of biting and licking behavior” value (GIRK2 knockout mice) was 218 ± 18 s. The “total duration of biting and licking behavior” value (wild-type control mice) was 152 ± 18 s.
For “Suc-Asp-Glu-Glu-Ala-Val-Tyr-Phe-Ala-His-Leu-Asp-Ile-Ile-Trp (Suc-DEEAVYFAHLDIIW) [IRL-1620, ETB receptor agonist]”, the “flinching behavior … compared to PBS control” value ([1]; IRL-1620 4 nmol alone) was “small but significant increase in flinching behavior”, the “MFF (maximal flinch frequency)” value [1, 12] was 4.7 ± 0.6 flinches per 5 minutes and the “Time to MFF” value [1, 12] was 33.3 ± 6.1 min. For the same compound, the “Total Number of Flinches” value ([1]; IRL-1620 4 nmol, alone or with ET-1 2 nmol, 75 minutes) was 22.1 ± 3.1 flinches, the “change in extracellular β-endorphin” value ([2]; 10 nM IRL-1620, 60 minute incubation) was “did not result in a significant change” and the “extracellular β-endorphin concentration” value ([2]; 200 nM IRL-1620 in PBS, basal level 1.76±0.08 μg/ml) was 10.5 ± 3 µg/mL. For the same compound, the “increase in extracellular β-endorphin” value ([2]; 200 nM IRL-1620 versus basal) was 5 fold and the “intracellular concentration of β-endorphin” value ([2]; similarly treated cultured keratinocytes) was 108±48 pg β-endorphin per 10^5 cells.
